Test results taken from the supplement of paper PMC10307832.

How the values were obtained:
Experiment in all cases: relative viability (nuclei count vs DMSO), 5 days (fraction); higher = more cells survive
JZL-184 = compound: C1CN(CCC1C(C2=CC3=C(C=C2)OCO3)(C4=CC5=C(C=C4)OCO5)O)C(=O)OC6=CC=C(C=C6)[N+](=O)[O-] [JZL-184]
How it was run: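 Viability here means nuclei in treated wells divided by nuclei in vehicle wells, reported as the median across plates. Only plates with control CV below 25% and at least one doubling passed. Lung cancer cell lines in 1536-well plates were exposed to five √10-spaced library-drug doses for 5 days and counted from 4× Hoechst images in MetaXpress.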

JZL-184 + Navitoclax = compound: C1CN(CCC1C(C2=CC3=C(C=C2)OCO3)(C4=CC5=C(C=C4)OCO5)O)C(=O)OC6=CC=C(C=C6)[N+](=O)[O-] [JZL-184] + CC1(C)CCC(c2ccc(Cl)cc2)=C(CN2CCN(c3ccc(C(=O)NS(=O)(=O)c4ccc(N[C@H](CCN5CCOCC5)CSc5ccccc5)c(S(=O)(=O)C(F)(F)F)c4)cc3)CC2)C1 [Navitoclax] (partner 0.5 µM)
How it was run: (§1)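 Relative viability equals treated-well nuclei counts divided by vehicle-well nuclei counts. Counts came from 4× images of lung cancer cell lines grown in 1536-well plates for 5 days after pin-tool dosing on the day after seeding. Dosing used one drug alone or a fixed anchor-drug dose plus five library-drug doses (not always all listed) in √10 steps, and values are medians of duplicate plates.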

JZL-184 + Foretinib = compound: C1CN(CCC1C(C2=CC3=C(C=C2)OCO3)(C4=CC5=C(C=C4)OCO5)O)C(=O)OC6=CC=C(C=C6)[N+](=O)[O-] [JZL-184] + COc1cc2c(Oc3ccc(NC(=O)C4(C(=O)Nc5ccc(F)cc5)CC4)cc3F)ccnc2cc1OCCCN1CCOCC1 [Foretinib] (partner 0.25 µM)
How it was run: as §1

JZL-184 + Lapatinib = compound: C1CN(CCC1C(C2=CC3=C(C=C2)OCO3)(C4=CC5=C(C=C4)OCO5)O)C(=O)OC6=CC=C(C=C6)[N+](=O)[O-] [JZL-184] + CS(=O)(=O)CCNCc1ccc(-c2ccc3ncnc(Nc4ccc(OCc5cccc(F)c5)c(Cl)c4)c3c2)o1 [Lapatinib] (partner 2 µM)
How it was run: as §1

JZL-184 + Pictilisib = compound: C1CN(CCC1C(C2=CC3=C(C=C2)OCO3)(C4=CC5=C(C=C4)OCO5)O)C(=O)OC6=CC=C(C=C6)[N+](=O)[O-] [JZL-184] + CS(=O)(=O)N1CCN(Cc2cc3nc(-c4cccc5[nH]ncc45)nc(N4CCOCC4)c3s2)CC1 [Pictilisib] (partner 1 µM)
How it was run: as §1

JZL-184 + Crizotinib = compound: C1CN(CCC1C(C2=CC3=C(C=C2)OCO3)(C4=CC5=C(C=C4)OCO5)O)C(=O)OC6=CC=C(C=C6)[N+](=O)[O-] [JZL-184] + C[C@@H](Oc1cc(-c2cnn(C3CCNCC3)c2)cnc1N)c1c(Cl)ccc(F)c1Cl [Crizotinib] (partner 1 µM)
How it was run: as §1

JZL-184 + Linsitinib = compound: C1CN(CCC1C(C2=CC3=C(C=C2)OCO3)(C4=CC5=C(C=C4)OCO5)O)C(=O)OC6=CC=C(C=C6)[N+](=O)[O-] [JZL-184] + C[C@]1(O)C[C@@H](c2nc(-c3ccc4ccc(-c5ccccc5)nc4c3)c3c(N)nccn32)C1 [Linsitinib] (partner 1 µM)
How it was run: as §1

JZL-184 + Alpelisib = compound: C1CN(CCC1C(C2=CC3=C(C=C2)OCO3)(C4=CC5=C(C=C4)OCO5)O)C(=O)OC6=CC=C(C=C6)[N+](=O)[O-] [JZL-184] + Cc1nc(NC(=O)N2CCC[C@H]2C(N)=O)sc1-c1ccnc(C(C)(C)C(F)(F)F)c1 [Alpelisib] (partner 2 µM)
How it was run: as §1

JZL-184 + Phenformin = compound: C1CN(CCC1C(C2=CC3=C(C=C2)OCO3)(C4=CC5=C(C=C4)OCO5)O)C(=O)OC6=CC=C(C=C6)[N+](=O)[O-] [JZL-184] + N=C(N)NC(=N)NCCc1ccccc1 [Phenformin] (partner 250 µM)
How it was run: as §1

JZL-184 + Decitabine = compound: C1CN(CCC1C(C2=CC3=C(C=C2)OCO3)(C4=CC5=C(C=C4)OCO5)O)C(=O)OC6=CC=C(C=C6)[N+](=O)[O-] [JZL-184] + Nc1ncn([C@H]2C[C@H](O)[C@@H](CO)O2)c(=O)n1 [Decitabine] (partner 2 µM)
How it was run: as §1

JZL-184 + Olaparib = compound: C1CN(CCC1C(C2=CC3=C(C=C2)OCO3)(C4=CC5=C(C=C4)OCO5)O)C(=O)OC6=CC=C(C=C6)[N+](=O)[O-] [JZL-184] + O=C(c1cc(Cc2n[nH]c(=O)c3ccccc23)ccc1F)N1CCN(C(=O)C2CC2)CC1 [Olaparib] (partner 8 µM)
How it was run: as §1

A549 gave a relative viability (JZL-184; 0.04 µM) of 1.1, a relative viability (JZL-184; 0.4 µM) of 0.928 and a relative viability (JZL-184; 1.265 µM) of 1.01. It also gave a relative viability (JZL-184; 4 µM) of 0.957, a relative viability (JZL-184 + Navitoclax; first compound 0.04 µM) of 1.18 and a relative viability (JZL-184 + Navitoclax; first compound 0.4 µM) of 1. It also gave a relative viability (JZL-184 + Navitoclax; first compound 1.265 µM) of 1.24, a relative viability (JZL-184 + Navitoclax; first compound 4 µM) of 1.23 and a relative viability (JZL-184 + Foretinib; first compound 0.04 µM) of 1.23. For the same cell line, the relative viability (JZL-184 + Foretinib; first compound 0.4 µM) was 0.942, the relative viability (JZL-184 + Foretinib; first compound 1.265 µM) was 1.06 and the relative viability (JZL-184 + Foretinib; first compound 4 µM) was 0.976. The relative viability (JZL-184 + Lapatinib; first compound 0.04 µM) was 1.06, the relative viability (JZL-184 + Lapatinib; first compound 0.4 µM) was 0.967 and the relative viability (JZL-184 + Lapatinib; first compound 1.265 µM) was 0.955. The relative viability (JZL-184 + Lapatinib; first compound 4 µM) was 1.01, the relative viability (JZL-184 + Pictilisib; first compound 0.04 µM) was 0.643 and the relative viability (JZL-184 + Pictilisib; first compound 0.4 µM) was 0.451. The relative viability (JZL-184 + Pictilisib; first compound 1.265 µM) was 0.478, the relative viability (JZL-184 + Pictilisib; first compound 4 µM) was 0.498 and the relative viability (JZL-184 + Crizotinib; first compound 0.04 µM) was 0.609. For the same cell line, the relative viability (JZL-184 + Crizotinib; first compound 0.4 µM) was 0.765, the relative viability (JZL-184 + Crizotinib; first compound 1.265 µM) was 0.68 and the relative viability (JZL-184 + Crizotinib; first compound 4 µM) was 0.699. For the same cell line, the relative viability (JZL-184 + Linsitinib; first compound 0.04 µM) was 0.559, the relative viability (JZL-184 + Linsitinib; first compound 0.4 µM) was 0.457 and the relative viability (JZL-184 + Linsitinib; first compound 1.265 µM) was 0.519. The relative viability (JZL-184 + Linsitinib; first compound 4 µM) was 0.633, the relative viability (JZL-184 + Alpelisib; first compound 0.04 µM) was 0.966 and the relative viability (JZL-184 + Alpelisib; first compound 0.4 µM) was 0.588. For the same cell line, the relative viability (JZL-184 + Alpelisib; first compound 1.265 µM) was 0.894, the relative viability (JZL-184 + Alpelisib; first compound 4 µM) was 0.614 and the relative viability (JZL-184 + Phenformin; first compound 0.04 µM) was 0.195. The relative viability (JZL-184 + Phenformin; first compound 0.4 µM) was 0.167, the relative viability (JZL-184 + Phenformin; first compound 1.265 µM) was 0.164 and the relative viability (JZL-184 + Phenformin; first compound 4 µM) was 0.112. The relative viability (JZL-184 + Decitabine; first compound 0.04 µM) was 0.278, the relative viability (JZL-184 + Decitabine; first compound 1.265 µM) was 0.26 and the relative viability (JZL-184 + Decitabine; first compound 4 µM) was 0.273. It also gave a relative viability (JZL-184 + Olaparib; first compound 0.04 µM) of 0.31, a relative viability (JZL-184 + Olaparib; first compound 0.4 µM) of 0.288 and a relative viability (JZL-184 + Olaparib; first compound 1.265 µM) of 0.382. For the same cell line, the relative viability (JZL-184 + Olaparib; first compound 4 µM) was 0.367.
